Test results: ChEMBL document CHEMBL1201862, “PubChem BioAssay data set” (2004)
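A five-concentration, 48-hour dose response in 96-well plates underlies each endpoint, interpolated linearly between surrounding concentrations. GI50 marks 50% less growth.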 Calls of active or inactive are those of the source. Rule as the data show it: active = GI50 up to about 1.1 µM and inactive = higher.

Experiments:
Assay in all cases: NCI-60 cell line screen, 48 h
CCRF-CEM = test system: CCRF-CEM
COLO 205 = test system: COLO 205
EKVX = test system: EKVX
HCT-15 = test system: HCT-15
K562 = test system: K562
KM12 = test system: KM12
LOX IMVI = test system: LOX IMVI
MDA-MB-231 = test system: MDA-MB-231
MDA-N = test system: MDA-N
MOLT-4 = test system: MOLT-4
Malme-3M = test system: Malme-3M
NCI-H460 = test system: NCI-H460
OVCAR-8 = test system: OVCAR-8
PC-3 = test system: PC-3
SF-539 = test system: SF-539
SN12C = test system: SN12C
SW-620 = test system: SW-620
U-251 = test system: U-251

Row | SMILES | GI50 (CCRF-CEM) | GI50 (COLO 205) | GI50 (EKVX) | GI50 (HCT-15) [µM] | GI50 (K562) | GI50 (KM12) | GI50 (LOX IMVI) | GI50 (MDA-MB-231) | GI50 (MDA-N) | GI50 (MOLT-4) | GI50 (Malme-3M) | GI50 (NCI-H460) | GI50 (OVCAR-8) | GI50 (PC-3) | GI50 (SF-539) | GI50 (SN12C) | GI50 (SW-620) | GI50 (U-251)
1 | CC(=O)OCC1OC(NC(=S)Nn2c(-c3ccccc3)nc3ccccc3c2=O)C(OC(C)=O)C(OC(C)=O)C1OC(C)=O (stereo not drawn) | 38.5 µM (inactive) | > 100 µM (inactive) | > 100 µM (inactive) | > 100 | > 100 µM (inactive) | > 100 µM (inactive) | > 100 µM (inactive) | 81.5 µM (inactive) | > 100 µM (inactive) | 46.9 µM (inactive) | 52.8 µM (inactive) | > 100 µM (inactive) | > 100 µM (inactive) | > 100 µM (inactive) | 37.8 µM (inactive) | 93.1 µM (inactive) | > 100 µM (inactive) | > 100 µM (inactive)
2 | CC(=O)OCC1OC(OC2CC3C(C)(C)C(O)CC[C@]3(C)C3CCC45CC4(CCC5[C@@H](C)CC(O)C(O)C(C)(C)O)[C@]23C)C(O)C(O)C1O (stereo partly drawn) | > 10 µM (inactive) | > 10 µM (inactive) | > 10 µM (inactive) | > 10 | > 10 µM (inactive) | > 10 µM (inactive) | > 10 µM (inactive) | > 10 µM (inactive) | > 10 µM (inactive) | > 10 µM (inactive) | > 10 µM (inactive) | > 10 µM (inactive) | > 10 µM (inactive) | > 10 µM (inactive) | > 10 µM (inactive) | > 10 µM (inactive) | > 10 µM (inactive) | > 10 µM (inactive)
3 | Cc1cnc2[nH]c(-c3ccccc3)cc(=O)c2c1 | 0.0159 µM (active) | 0.0193 µM (active) | 0.716 µM (active) | 0.0212 | < 0.01 µM (active) | 0.0138 µM (active) | 0.0351 µM (active) | 0.217 µM (active) | < 0.01 µM (active) | 0.0252 µM (active) | 0.017 µM (active) | 0.0259 µM (active) | 0.04 µM (active) | 0.0161 µM (active) | 0.0246 µM (active) | 0.0527 µM (active) | < 0.01 µM (active) | 0.0188 µM (active)
4 | COc1ccc(Nc2nc3ccc(C(F)(F)F)cc3nc2C(=O)O)cc1 | 27 µM (inactive) | 34.1 µM (inactive) | 31.5 µM (inactive) | 28.6 | 29.9 µM (inactive) | 23.5 µM (inactive) | 32.5 µM (inactive) | 66.4 µM (inactive) | 42.2 µM (inactive) | 29.5 µM (inactive) | 36.6 µM (inactive) | 26 µM (inactive) | 30.8 µM (inactive) | 29.6 µM (inactive) | 23.9 µM (inactive) | 30.3 µM (inactive) | 38.4 µM (inactive) | 32.1 µM (inactive)
5 | CC(C)c1cc2c(cc1S(=O)(=O)O)[C@@]1(C)CCC[C@@](C)(C(=O)O)C1CC2 (stereo partly drawn) | > 100 µM (inactive) | > 100 µM (inactive) | > 100 µM (inactive) | > 100 | > 100 µM (inactive) | > 100 µM (inactive) | > 100 µM (inactive) | > 100 µM (inactive) | > 100 µM (inactive) | > 100 µM (inactive) | > 100 µM (inactive) | > 100 µM (inactive) | > 100 µM (inactive) | > 100 µM (inactive) | > 100 µM (inactive) | > 100 µM (inactive) | > 100 µM (inactive) | > 100 µM (inactive)
6 | COc1ccc2c(C)cc(N/N=C/c3ccc(C)s3)nc2c1 | 5.37 µM (inactive) | 2.81 µM (inactive) | 5.4 µM (inactive) | 4.21 | 3.61 µM (inactive) | 5.18 µM (inactive) | 3.46 µM (inactive) | 6.49 µM (inactive) | 10.4 µM (inactive) | 5.94 µM (inactive) | 17.7 µM (inactive) | 5.27 µM (inactive) | 15.2 µM (inactive) | 14.1 µM (inactive) | 13.6 µM (inactive) | 11.9 µM (inactive) | 13.1 µM (inactive) | 13.7 µM (inactive)
7 | Nc1ccccc1N/C=C\C(=O)C(Cl)(Cl)Cl | 4.26 µM (inactive) | 22.8 µM (inactive) | 15 µM (inactive) | 19 | 17.1 µM (inactive) | 15.5 µM (inactive) | 15.9 µM (inactive) | 47.1 µM (inactive) | 16.6 µM (inactive) | 11 µM (inactive) | 33.2 µM (inactive) | 31.3 µM (inactive) | 29 µM (inactive) | 35.3 µM (inactive) | 28.4 µM (inactive) | 19 µM (inactive) | 16.7 µM (inactive) | 25.6 µM (inactive)
8 | CC1=NNC(=O)C1C1CC(c2c[nH]c3ccccc23)=NN(c2ccccc2)C1=O (stereo not drawn) | 28.1 µM (inactive) | > 100 µM (inactive) | > 100 µM (inactive) | 37 | 35 µM (inactive) | > 100 µM (inactive) | 27.6 µM (inactive) | > 100 µM (inactive) | 59.2 µM (inactive) | 34 µM (inactive) | > 100 µM (inactive) | > 100 µM (inactive) | > 100 µM (inactive) | > 100 µM (inactive) | 87.3 µM (inactive) | 50.5 µM (inactive) | 42.3 µM (inactive) | 87.5 µM (inactive)
9 | CC1(C)OC(=O)C(C)(C)OC1=O | > 100 µM (inactive) | > 100 µM (inactive) | > 100 µM (inactive) | > 100 | > 100 µM (inactive) | > 100 µM (inactive) | > 100 µM (inactive) | > 100 µM (inactive) | > 100 µM (inactive) | > 100 µM (inactive) | > 100 µM (inactive) | > 100 µM (inactive) | > 100 µM (inactive) | > 100 µM (inactive) | > 100 µM (inactive) | > 100 µM (inactive) | > 100 µM (inactive) | > 100 µM (inactive)
10 | Cc1cc(C)cc(Nc2cc(O)nc(O)n2)c1 | > 100 µM (inactive) | > 100 µM (inactive) | > 100 µM (inactive) | > 100 | > 100 µM (inactive) | > 100 µM (inactive) | > 100 µM (inactive) | > 100 µM (inactive) | > 100 µM (inactive) | > 100 µM (inactive) | > 100 µM (inactive) | > 100 µM (inactive) | > 100 µM (inactive) | > 100 µM (inactive) | > 100 µM (inactive) | > 100 µM (inactive) | > 100 µM (inactive) | > 100 µM (inactive)
11 | CN(Cc1cc(C(C)(C)C)cc(Br)c1O)Cc1cc(C(C)(C)C)cc(Br)c1O | 2.7 µM (inactive) | 12.2 µM (inactive) | 3.83 µM (inactive) | 3.12 | 3.13 µM (inactive) | 2.52 µM (inactive) | 3.77 µM (inactive) | 2.15 µM (inactive) | 4.5 µM (inactive) | 3.21 µM (inactive) | 4.58 µM (inactive) | 1.87 µM (inactive) | 4.33 µM (inactive) | 2.96 µM (inactive) | 2.74 µM (inactive) | 4.19 µM (inactive) | 3.48 µM (inactive) | 2.65 µM (inactive)
12 | CCOC(=O)NC(C(=O)OCC)(N1CCN(c2cc3c(cc2F)c(=O)c(C(=O)O)cn3CC)CC1)C(F)(F)F (stereo not drawn) | > 100 µM (inactive) | > 100 µM (inactive) | 13.2 µM (inactive) | > 100 | > 100 µM (inactive) | > 100 µM (inactive) | > 100 µM (inactive) | > 100 µM (inactive) | > 100 µM (inactive) | > 100 µM (inactive) | > 100 µM (inactive) | > 100 µM (inactive) | 6.1 µM (inactive) | > 100 µM (inactive) | > 100 µM (inactive) | > 100 µM (inactive) | > 100 µM (inactive) | 58.1 µM (inactive)
13 | Cc1c(C)c(C)n(C2OC(CO)C(O)C(O)C2O)c(=S)c1C#N (stereo not drawn) | > 100 µM (inactive) | > 100 µM (inactive) | > 100 µM (inactive) | > 100 | > 100 µM (inactive) | > 100 µM (inactive) | > 100 µM (inactive) | > 100 µM (inactive) | > 100 µM (inactive) | > 100 µM (inactive) | > 100 µM (inactive) | > 100 µM (inactive) | > 100 µM (inactive) | > 100 µM (inactive) | > 100 µM (inactive) | > 100 µM (inactive) | > 100 µM (inactive) | > 100 µM (inactive)
14 | COc1cc2c3c(c1)CCCN3CCC2 | > 10 µM (inactive) | > 10 µM (inactive) | > 10 µM (inactive) | > 10 | > 10 µM (inactive) | > 10 µM (inactive) | > 10 µM (inactive) | > 10 µM (inactive) | > 10 µM (inactive) | > 10 µM (inactive) | > 10 µM (inactive) | > 10 µM (inactive) | > 10 µM (inactive) | > 10 µM (inactive) | > 10 µM (inactive) | > 10 µM (inactive) | > 10 µM (inactive) | > 10 µM (inactive)
15 | CN(C)c1ccc(/C=c2/c3ccccc3n3c2cc(C24CC5CC(CC(C5)C2)C4)[n+]3C)cc1 | 0.117 µM (active) | 0.0877 µM (active) | 0.344 µM (active) | 0.446 | 0.0998 µM (active) | 0.156 µM (active) | 0.326 µM (active) | 0.281 µM (active) | 0.33 µM (active) | 0.998 µM (active) | 0.527 µM (active) | 0.313 µM (active) | 0.129 µM (active) | 0.125 µM (active) | 0.123 µM (active) | 0.324 µM (active) | 0.148 µM (active) | 0.0664 µM (active)
16 | NCCCN1c2ccccc2Sc2ccc(Cl)cc21 | 3.19 µM (inactive) | 1.81 µM (inactive) | > 7.36 µM (inactive) | 4.72 | 2.63 µM (inactive) | 2.51 µM (inactive) | 3.29 µM (inactive) | 3.33 µM (inactive) | 3.69 µM (inactive) | 2.88 µM (inactive) | 6.97 µM (inactive) | 3.33 µM (inactive) | 5.7 µM (inactive) | 4.17 µM (inactive) | 5.22 µM (inactive) | 6 µM (inactive) | 2.9 µM (inactive) | 5.38 µM (inactive)
